Laboratory results: ChEMBL document CHEMBL3885881, “DrugMatrix”
Starred links: 1 amine or outer side, 2 acyl side, 3 side chain; linkers in the order of their positions; H or OH if unused. Positions of bridges follow the written chain, without caps; N, C: chain ends. Non-standard residues stand in square brackets, D forms with d. Residues, ends and D or L forms follow the SMILES beside them. Chains are numbered I, II in the order given. Actinocin(9to1) = Cc1c2oc3c(C)ccc(C(=O)[*:1])c3nc-2c(C(=O)[*:2])c(N)c1=O; NMeV = CN[C@H](C(=O)O)C(C)C; Sar = CNCC(=O)O

Organism: Rattus norvegicus
Assay: DrugMatrix - Regimen: Daily Repeat
Format: toxicity, organism-based, Sprague-Dawley
Set-up: regimen Daily Repeat, gender Male, age 6-8 weeks
Settings: in vivo, iv, vehicle 100 % SALINE; for ALANINE AMINOTRANSFERASE / ALBUMIN / ALKALINE PHOSPHATASE / ASPARTATE AMINOTRANSFERASE / BLOOD UREA NITROGEN / CARBON DIOXIDE / CHLORIDE / CHOLESTEROL / CREATINE PHOSPHOKINASE / CREATININE / GLUCOSE / LACTATE DEHYDROGENASE / LIPASE / PHOSPHORUS / POTASSIUM / SODIUM / TOTAL BILIRUBIN / TOTAL PROTEIN / URIC ACID: tissue Plasma
[1] = 0 mg/kg, 120 h, dose level Control, time 5 day
[2] = 0.006 mg/kg, 72 h, tissue Blood, dose level Low, time 3 day
[3] = 0.006 mg/kg, 72 h, dose level Low, time 3 day

SMILES: Cc1c2oc3c(C)ccc(C(=O)N[C@@H]4C(=O)N[C@H](C(C)C)C(=O)N5CCC[C@H]5C(=O)N(C)CC(=O)N(C)[C@@H](C(C)C)C(=O)O[C@@H]4C)c3nc-2c(C(=O)N[C@@H]2C(=O)N[C@H](C(C)C)C(=O)N3CCC[C@H]3C(=O)N(C)CC(=O)N(C)[C@@H](C(C)C)C(=O)O[C@@H]2C)c(N)c1=O [DACTINOMYCIN] (I: T[dV]P[Sar][NMeV] / II: T[dV]P[Sar][NMeV]; ester I:1-I:C, II:1-II:C; linker I:N-II:N via Actinocin(9to1))
- ALANINE AMINOTRANSFERASE [1]: 52.83 u/L
- ALBUMIN [1]: 4.12 G/DL
- ALKALINE PHOSPHATASE [1]: 370 u/L
- ASPARTATE AMINOTRANSFERASE [1]: 100.5 u/L
- BLOOD UREA NITROGEN [1]: 15.17 mg/dL
- CARBON DIOXIDE [1]: 28.83 mmol/L
- CHLORIDE [1]: 101 MEQ/L
- CHOLESTEROL [1]: 69.5 mg/dL
- CREATINE PHOSPHOKINASE [1]: 488.67 u/L
- CREATININE [1]: 0.23 mg/dL
- GLUCOSE [1]: 165 mg/dL
- LACTATE DEHYDROGENASE [1]: 502.17 u/L
- LIPASE [1]: 11 u/L
- PHOSPHORUS [1]: 11.7 mg/dL
- POTASSIUM [1]: 5.85 MEQ/L
- SODIUM [1]: 142.45 MEQ/L
- TOTAL BILIRUBIN [1]: 0.18 mg/dL
- TOTAL PROTEIN [1]: 5.85 G/DL
- URIC ACID [1]: 1.43 mg/dL
- ABSOLUTE BASOPHIL [2]: 0 CELLS/uL
- ABSOLUTE EOSINOPHIL [2]: 0 CELLS/uL
- ABSOLUTE LYMPHOCYTE [2]: 7777.33 CELLS/uL
- ABSOLUTE MONOCYTE [2]: 151.33 CELLS/uL
- ABSOLUTE SEGMENTED NEUTROPHIL [2]: 1138 CELLS/uL
- BASOPHIL [2]: 0%
- EOSINOPHIL [2]: 0%
- ERYTHROCYTE COUNT [2]: 5.68 x10E6/uL
- HEMATOCRIT [2]: 35.57%
- HEMOGLOBIN [2]: 13.43 G/DL
- LEUKOCYTE COUNT [2]: 9.07 x10E3/uL
- LYMPHOCYTE [2]: 85.67%
- MEAN CORPUSCULAR HEMOGLOBIN [2]: 23.67 pg
- MEAN CORPUSCULAR HEMOGLOBIN CONCENTRATION [2]: 37.77 G/DL
- MEAN CORPUSCULAR VOLUME [2]: 62.63 fL
- MONOCYTE [2]: 1.67%
- NEUTROPHIL [2]: 12.67%
- NUCLEATED RED BLOOD CELLS [2]: 0 /100WBC
- PLATELET COUNT [2]: 1053 x10E3/uL
- ALANINE AMINOTRANSFERASE [3]: 49.33 u/L
- ALBUMIN [3]: 4.33 G/DL
- ALKALINE PHOSPHATASE [3]: 363.33 u/L
- ASPARTATE AMINOTRANSFERASE [3]: 85.33 u/L
- BLOOD UREA NITROGEN [3]: 14 mg/dL
- CARBON DIOXIDE [3]: 26 mmol/L
- CHLORIDE [3]: 101.67 MEQ/L
- CHOLESTEROL [3]: 85.33 mg/dL
- CREATINE PHOSPHOKINASE [3]: 333 u/L
- CREATININE [3]: 0.25 mg/dL
- GLUCOSE [3]: 155.67 mg/dL
- LACTATE DEHYDROGENASE [3]: 134 u/L
- LIPASE [3]: 11 u/L
- PHOSPHORUS [3]: 10.57 mg/dL
- POTASSIUM [3]: 6.37 MEQ/L
- SODIUM [3]: 143.37 MEQ/L
- TOTAL BILIRUBIN [3]: 0.3 mg/dL
- TOTAL PROTEIN [3]: 6.17 G/DL
- URIC ACID [3]: 1.6 mg/dL
